# Measurements: PMC7889647 (Basic & clinical pharmacology & toxicology, 2020)
# Molecular target: hERG1a (human ether-a-go-go-related gene potassium channel, Kv11.1) (Homo sapiens, UniProt Q12809)
# Type: cell-based
# Chain of hERG1a (human ether-a-go-go-related gene potassium channel, Kv11.1) (Q12809 whole entry): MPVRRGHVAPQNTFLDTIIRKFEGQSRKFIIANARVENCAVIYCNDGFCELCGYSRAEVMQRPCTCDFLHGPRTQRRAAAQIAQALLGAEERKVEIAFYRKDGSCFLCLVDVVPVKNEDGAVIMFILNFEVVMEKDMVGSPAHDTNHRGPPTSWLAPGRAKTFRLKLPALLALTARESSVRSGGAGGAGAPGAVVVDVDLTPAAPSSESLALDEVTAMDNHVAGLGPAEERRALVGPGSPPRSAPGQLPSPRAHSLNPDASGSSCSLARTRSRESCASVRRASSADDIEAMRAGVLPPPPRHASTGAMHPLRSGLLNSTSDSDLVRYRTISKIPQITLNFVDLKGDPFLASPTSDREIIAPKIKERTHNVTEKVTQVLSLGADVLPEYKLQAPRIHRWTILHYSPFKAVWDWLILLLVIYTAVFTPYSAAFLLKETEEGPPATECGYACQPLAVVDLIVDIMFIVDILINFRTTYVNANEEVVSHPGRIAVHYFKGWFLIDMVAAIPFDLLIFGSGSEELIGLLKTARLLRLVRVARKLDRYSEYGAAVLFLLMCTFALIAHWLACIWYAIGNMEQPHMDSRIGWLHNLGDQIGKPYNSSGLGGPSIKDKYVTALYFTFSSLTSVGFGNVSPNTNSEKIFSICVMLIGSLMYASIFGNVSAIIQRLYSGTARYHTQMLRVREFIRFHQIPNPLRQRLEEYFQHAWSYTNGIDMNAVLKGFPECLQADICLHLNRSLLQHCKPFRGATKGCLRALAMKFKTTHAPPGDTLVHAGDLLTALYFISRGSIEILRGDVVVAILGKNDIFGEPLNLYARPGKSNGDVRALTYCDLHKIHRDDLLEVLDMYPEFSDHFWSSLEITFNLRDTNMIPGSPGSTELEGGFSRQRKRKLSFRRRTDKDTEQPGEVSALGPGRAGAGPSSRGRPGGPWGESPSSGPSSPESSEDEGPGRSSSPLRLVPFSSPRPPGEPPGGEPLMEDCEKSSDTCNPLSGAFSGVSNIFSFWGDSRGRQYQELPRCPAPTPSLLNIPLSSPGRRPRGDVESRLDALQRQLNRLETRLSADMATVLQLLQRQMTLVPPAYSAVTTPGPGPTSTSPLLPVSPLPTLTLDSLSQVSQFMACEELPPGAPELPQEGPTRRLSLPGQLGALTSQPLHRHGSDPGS
smiles,measurement,value
N#Cc1ccc(C(c2ccc(C#N)cc2)n2cncn2)cc1 [letrozole],IC50,373 nM
